# From a melting point compilation (Tetko et al.; mined from patent text by program, amines drawn as free bases though some values may be those of a salt)
row,SMILES,melting point [°C]
1,CNC(=O)c1ccc(C=CC(=O)NCC(=O)N(C)c2ccc(Cl)c(COc3cccc4c(OCC(=O)O)cc(C)nc34)c2Cl)cc1,233 to 257
2,CC(C)C(=O)N1CCC(C(CS(=O)(=O)c2ccc(Oc3ccc(OC(F)(F)F)cc3)cc2)N(O)C=O)CC1 (stereo not drawn),139 to 140
3,Cc1cc(C)c2c(c1)c1c(n2Cc2ccc(Cl)cc2)C(CC(=O)O)CCC1 (stereo not drawn),187 to 188
4,O=C(O)CN(Cn1nnc2ccccc21)Cn1nnc2ccccc21,163 to 166
5,C=C(C)COC1CC2C3CCC4=CC(=O)C=CC4(C)C3(F)C(O)CC2(C)C1(O)C(=O)CCl (stereo not drawn),238 to 240
6,O=c1ccsn1C(O)C(Cl)(Cl)Cl (stereo not drawn),117 to 118
7,Cc1cc(-c2cnn3c(C(F)(F)F)cc(-c4ccc(C(F)(F)F)c(OCC(F)(F)F)c4)nc23)cc(C)n1,245
8,COc1ccc(Nc2cnc3cnc(-c4ccc(O)cc4)nc3c2)cc1,134 to 136
9,N#Cc1ccc(CN2CC=C(/C=C/c3ccc(F)cc3)CC2)cc1,150 to 152
10,CCCN(CCC)c1c([N+](=O)[O-])cc(S(=O)(=O)N(C)C(=O)OC)cc1[N+](=O)[O-],90 to 94
11,COC(=O)c1ccccc1S(=O)(=O)NCC(=O)N[C@@H](Cc1ccccc1)C(=O)O,140 to 143
12,CC(=O)NCCCCCC(=O)Nc1ncccc1C(=O)c1ccc(Cl)cc1,117 to 119
13,CC(=O)Nc1cc(C)c(N)c(C)c1[N+](=O)[O-],197
14,CCCCc1nc2ccccn2c(=O)c1-c1ccc(Cl)c(C)c1,122 to 124
15,COC(=O)c1cccc([N+](=O)[O-])c1NC(=O)OC(C)(C)C,92 to 94
16,CC(=O)N(C)N(C(=O)OC(C)(C)C)c1ccc(CO)cc1,122 to 123

# Next, values leading:
row,melting point [°C],SMILES
1,160 to 162,N#CC=C1CCN(c2ccc(N3C[C@H](CNC(=O)CBr)OC3=O)cc2F)CC1
2,153 to 156,CN(C)S(=O)(=O)c1ccc(NC(=O)C2(C)CC2)cc1C(F)(F)F
3,77 to 78,CCSc1cc(CC=NOC)ccc1N(CC)c1nc(C)cc(C)n1
4,116 to 118,O=S(=O)(Cl)c1nc2ccccn2n1
5,165 to 166,CCn1ncc2nc(C(=O)NC)c(-c3ccccc3)nc21
6,327 to 334,COc1ccc2ncc(CO)c(O)c2c1
7,95,CC(=O)OC1CSC(Oc2cncc(-c3c(C)n[nH]c3C)c2)C(OC(C)=O)C1OC(C)=O (stereo not drawn)
8,168,CC(C)N(C(C)C)S(=O)(=O)N[C@@H](Cc1ccc(Nc2nccc3cnccc23)cc1)C(=O)O
9,120 to 121,COC(=O)C(O)C(NC(=O)OCc1ccccc1)c1ccccc1 (stereo not drawn)
10,136 to 138,CC(=O)OC1CSC(Oc2ccccc2-c2c(C)noc2C)C(OC(C)=O)C1OC(C)=O (stereo not drawn)
11,78 to 80,Cc1ccc(S(=O)(=O)O[C@H](C)C(=O)N2C(=O)N(C)C[C@H]2C(=O)OC(C)(C)C)cc1
12,59 to 61,Nc1ccccc1CCc1ccccn1
13,137 to 138,COC(=O)c1ccc(-c2nn(Cc3ccccc3)c3ccccc23)o1
14,149 to 151,Cc1c(SCCCN2CCN(Cc3ccncc3)CC2)ccnc1CNc1ncncc1Cl
15,170 to 174,NS(=O)(=O)c1cc(CCNC(=O)/C=C/c2cccs2)ccc1OCCc1ccccc1
16,68 to 72,O=C(Nc1ccc2[nH]ccc2c1)C(=O)N1CCC(Cc2ccccc2)CC1
17,218 to 220,COc1ccnc(CCc2nc3cc(-c4ccc(S(=O)(=O)N5CCN(c6ccccc6)CC5)cc4)cnc3[nH]2)c1
18,186 to 187,CCOCC1(C)CCCSc2cc(/C=C/c3ccc(C(=O)O)cc3)ccc21 (stereo not drawn)
19,> 225,CCNC[C@H]1CCc2cc(F)cc(-c3c(Cl)cccc3Cl)c2O1
20,140 to 142,Nc1cc2c(cc1[N+](=O)[O-])CCO2
21,134 to 135,CCOC(=O)CCc1cccc(NC(=O)c2cc(-c3ccc(C(F)(F)F)cc3)oc2C)c1
22,81 to 85,CC(Cc1c[nH]c2ccccc12)(NS(=O)(=O)CC12CCC(CC1=O)C2(C)C)C(=O)NC(CO)Cc1ccccc1 (stereo not drawn)
